Results: ChEMBL document CHEMBL5143660, “Investigation on the chemical space of the substituted triazole thio-benzoxazepinone RIPK1 inhibitors” (Eur J Med Chem, 2022)

Key:
[1] = Cytotoxicity against human HT-29 cells assessed as reduction in cell viability; type: toxicity, cell-based
[2] = system: HT-29; test: Anti-necroptic activity in human HT-29 cells assessed as inhibition of TSZ induced necroptosis measured after 16 to 24 hrs by celltiter-glo luminescent cell viability assay; type: functional, cell-based
[3] = molecular target: T1, Receptor-interacting serine/threonine-protein kinase 1 (Homo sapiens, UniProt Q13546); test: Binding affinity to wild-type human partial length RIPK1 (M1 to K305 residues) expressed in bacterial expression system incubated for 1 hr under shaking condition by Kinomescan method
T1 sequence (Q13546 whole entry): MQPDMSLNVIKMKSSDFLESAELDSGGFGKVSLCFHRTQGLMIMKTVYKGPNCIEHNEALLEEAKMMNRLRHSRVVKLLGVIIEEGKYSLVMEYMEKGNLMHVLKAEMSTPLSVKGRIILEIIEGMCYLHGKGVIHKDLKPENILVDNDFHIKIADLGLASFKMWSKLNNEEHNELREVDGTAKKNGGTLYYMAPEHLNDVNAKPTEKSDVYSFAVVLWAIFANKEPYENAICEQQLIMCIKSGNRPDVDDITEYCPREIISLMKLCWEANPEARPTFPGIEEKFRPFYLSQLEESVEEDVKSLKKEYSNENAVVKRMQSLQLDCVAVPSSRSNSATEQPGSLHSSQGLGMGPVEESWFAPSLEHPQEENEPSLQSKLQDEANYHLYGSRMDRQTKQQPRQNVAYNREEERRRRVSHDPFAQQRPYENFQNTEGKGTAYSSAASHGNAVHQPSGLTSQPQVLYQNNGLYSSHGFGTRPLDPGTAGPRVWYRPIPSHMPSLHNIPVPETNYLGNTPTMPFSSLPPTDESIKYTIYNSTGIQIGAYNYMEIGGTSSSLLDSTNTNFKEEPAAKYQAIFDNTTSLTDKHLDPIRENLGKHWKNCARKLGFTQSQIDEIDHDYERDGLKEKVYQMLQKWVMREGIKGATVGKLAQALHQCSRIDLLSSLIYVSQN

Kd [3] [µM]	Structure (SMILES)	CC50 [1] [µM]	EC50 [2] [µM]
–	CN1C(=S)[C@@H](NC(=O)c2nc(Cc3ccccc3)n(CC3CCOCC3)n2)COc2ccccc21	> 100	6.31
–	CCCn1nc(C(=O)N[C@H]2COc3ccccc3N(C)C2=S)nc1Cc1ccccc1	> 100	0.288
0.031	CN1C(=S)[C@@H](NC(=O)c2n[nH]c(Cc3ccccc3)n2)COc2ccccc21	> 50	–
–	CN1C(=S)[C@@H](NC(=O)c2nc(Cc3ccccc3)n(CCCO)n2)COc2ccccc21	> 100	0.208
–	CN1C(=S)[C@@H](NC(=O)c2nc(Cc3ccccc3)n(-c3ncccn3)n2)COc2ccccc21	> 100	3.97
–	CN1C(=S)[C@@H](NC(=O)c2nc(Cc3ccccc3)n(CCC(F)(F)F)n2)COc2ccccc21	> 100	1.55
–	CN1C(=S)[C@@H](NC(=O)c2nc(Cc3ccccc3)n(CC3COC3)n2)COc2ccccc21	> 100	2.83
–	CN1C(=S)[C@@H](NC(=O)c2nc(Cc3ccccc3)n(C3CCCC3)n2)COc2ccccc21	> 100	3.53
–	CN1C(=S)[C@@H](NC(=O)c2nc(Cc3ccccc3)n(CC(F)F)n2)COc2ccccc21	> 100	0.0089
–	CN1C(=S)[C@@H](NC(=O)c2nc(Cc3ccccc3)n(C3COC3)n2)COc2ccccc21	> 100	0.916
–	COCCn1nc(C(=O)N[C@H]2COc3ccccc3N(C)C2=S)nc1Cc1ccccc1	> 100	0.566
0.267	CN1C(=S)[C@@H](NC(=O)c2nc(Cc3ccccc3)n(CC(F)(F)F)n2)COc2ccccc21	> 100	0.036
–	CN1C(=S)[C@@H](NC(=O)c2nc(Cc3ccccc3)n(CC3CCOC3)n2)COc2ccccc21 (some centres undefined)	> 100	4.42
–	CN1C(=S)[C@@H](NC(=O)c2nc(Cc3ccccc3)n(CCCC(F)(F)F)n2)COc2ccccc21	> 100	2.38
–	CN1C(=S)[C@@H](NC(=O)c2nc(Cc3ccccc3)n(CCCCCC#N)n2)COc2ccccc21	> 100	3.83
–	CN1C(=S)[C@@H](NC(=O)c2nc(Cc3ccccc3)n(C3CCN(C(=O)OC(C)(C)C)C3)n2)COc2ccccc21 (some centres undefined)	> 100	> 10
–	CN1C(=S)[C@@H](NC(=O)c2nc(Cc3ccccc3)n(C3CCCCC3)n2)COc2ccccc21	> 100	4
–	CC(C)CCn1nc(C(=O)N[C@H]2COc3ccccc3N(C)C2=S)nc1Cc1ccccc1	> 100	3.64
–	CCCCn1nc(C(=O)N[C@H]2COc3ccccc3N(C)C2=S)nc1Cc1ccccc1	> 100	0.51
